Measurements reported in patent publication US20030008273A1, “Methods for increasing the survival of neuronal cells” (priority 2001, published 2003).
Entries after “also recorded” stand apart in the source; their conditions may differ.

Legend:
[1] = test system: primary ventral mesencephalic cultures; assay: Primary ventral mesencephalic cultures, count of NeuN-positive cells; assay type: cell-based, rat
Description: (§1) Ventral midbrain, cortex and hippocampus from rat embryos at stage E14.5-15.5 were dissected, mechanically dissociated and plated on poly-D-lysine coated 12 or 24 well plates in serum free media (N2, consisting of a 1:1 mixture of MEM (+15 mM HEPES buffer) and Ham's F12 medium (+6 mg/ml glucose, 1 mg/ml bovine serum albumin, 5 ug/ml insulin, 100 ug/ml transferrin, 60 μM putrescine, 20 nM progesterone, 30 nM selenium and 1 mM glutamine). Ligands (all-trans RA, 9-cis retinoic acid, LG268, docosahexanoic acid (DHA), SR11237, TTNPB, and LB1208; stock solutions in DMSO) were diluted to working concentrations in N2, added to cells and incubated 3-5 days. GDNF was dissolved in phosphate-buffered saline (PBS) containing 1 mg/ml bovine serum albumin. These experiments were conducted in triplicate. Paraformaldehyde fixed cultures were then incubated over night with anti-tyrosine hydroxylase (TH) (1:1000, Pel-Freez), anti-NeuN (1:200, Chemicon) or anti-Nurr1 (1: 10,000, Santa Cruz) antibodies in PBS containing 0.5% (TH and NeuN) or 10% (Nurr1) fetal calf serum and 0.3% triton X100. Following rinses, cultures were incubated with biotinylated secondary antibody followed by detection of immuno-staining using the ABC immunoperoxidase kit from Vector. Cells were counted using brightfield microscopy (Nikon Eclipse EM 300). […]

[2] = test system: primary ventral midbrain cells (dopamine secreting cells); assay: Primary ventral midbrain cultures, count of TH-immunoreactive (dopamine) cells; assay type: cell-based, rat; details: for number of TH-immunoreactive (IR) cells: ligand alone, increasing concentrations, 3-5 days
Description: (§2) Ventral midbrains from rat embryos at stage E15.5 were dissected, mechanically dissociated, and plated on poly-D-lysine coated 12 well plates in serum-free medium (N2; consisting of a 1:1 mixture of F12 and MEM with 5 μg/ml insulin, 100 μg/ml transferrin, 60 μM putrescine, 20 nM progesterone, 30 nM selenium, 6 mg/ml glucose and 1 mg/ml bovine serum albumin).
Ventral midbrain, cortex and hippocampus from rat embryos at stage E14.5-15.5 were dissected, mechanically dissociated and plated on poly-D-lysine coated 12 or 24 well plates in serum free media (N2, consisting of a 1:1 mixture of MEM (+15 mM HEPES buffer) and Ham's F12 medium (+6 mg/ml glucose, 1 mg/ml bovine serum albumin, 5 ug/ml insulin, 100 ug/ml transferrin, 60 μM putrescine, 20 nM progesterone, 30 nM selenium and 1 mM glutamine). Ligands (all-trans RA, 9-cis retinoic acid, LG268, docosahexanoic acid (DHA), SR11237, TTNPB, and LB1208; stock solutions in DMSO) were diluted to working concentrations in N2, added to cells and incubated 3-5 days. GDNF was dissolved in phosphate-buffered saline (PBS) containing 1 mg/ml bovine serum albumin. These experiments were conducted in triplicate. Paraformaldehyde fixed cultures were then incubated over night with anti-tyrosine hydroxylase (TH) (1:1000, Pel-Freez), anti-NeuN (1:200, Chemicon) or anti-Nurr1 (1: 10,000, Santa Cruz) antibodies in PBS containing 0.5% (TH and NeuN) or 10% (Nurr1) fetal calf serum and 0.3% triton X100. Following rinses, cultures were incubated with biotinylated secondary antibody followed by detection of immuno-staining using the ABC immunoperoxidase kit from Vector. Cells were counted using brightfield microscopy (Nikon Eclipse EM 300). Cell counting was performed independently by two individuals to derive unbiased results.

[3] = test system: RXR (Nurr1-RXR heterodimer); details: JEG3, MH100-tk-luc reporter
Description: (§4) Human choriocarcinoma cells, JEG3, were transfected in triplicate in 24-well plates. […] Each well was transfected with 100 ng of the gal4-binding luciferase reporter construct, MH100-tk-luc, 100 ng of CMX-RXR (Perlmann et al. (1995) Genes and Dev. 9: 769-782), and 100 ng of either CMX-gal4-Nurr1 (Perlmann et al. (1995) Genes and Dev. 9: 769-782), or CMX-gal4-Nurr1 dim^−.
(§5) In reporter assays of conditioned media and 9-cis retinoic acid titration experiments, a CMX-gal4-RAR construct (Perlmann et al. (1995) Genes and Dev. 9: 769-782) was also used. In all experiments, CMX-βgal (200 ng) (Perlmann et al. (1995) Genes and Dev. 9, 769-782) was used as an internal control. Following transfection of JEG3 cells (6 hours post-transfection), calcium precipitate was removed by washing with fresh medium. Tissue explants or conditioned media were then added to the cells. After 24 hours, cells were harvested and assayed for luciferase and reference β-galactosidase activity on a luminometer/photometer.
Reporter experiments were performed as previously described. […] Briefly, an expression vector encoding a derivative of the orphan-nuclear receptor Nurr1 (GAL4-Nurr1), was cotransfected into JEG3 cells with an expression vector encoding RXR and a reporter expression vector containing GAL4 binding sites in operable linkage with a luciferase reporter gene. […]

RAR = assay: Luciferase reporter assay in JEG3 cells transfected with gal4-RAR; assay type: cell-based; details: JEG3, MH100-tk-luc reporter
Description: as §4, §5

cortex cultures = assay: Primary cortex cultures, count of Nurr1-positive and non-expressing cells; assay type: cell-based, rat
Description: as §1

Nurr1+/+ cortical cells = assay: Primary cortical cultures from wild-type (Nurr1+/+) mice, NeuN count; assay type: cell-based, mouse; details: 0.1 μM, three days
Description: (§3) Nurr1^+/− females were mated with Nurr1^+/− males to generate embryo litters of mixed genotypes (25%^+/+, 50%^+/− and 25%^−/−) as previously described (Zetterström et al, Science 1997). Pregnant females were sacrificed and embryos at embryonic stage E15.5 were dissected. Tails were removed for genotyping. Brains were fine-dissected and meninges removed. Both cortices from each embryo were removed and placed in 500 μl culture medium (N2). When all embryos in the litter were dissected, the cortices were triturated by mechanical dissociation using a fire-polished Pasteur pipette. […] To avoid excessive cell death due to the extended dissection period when using gene targeted mice as compared to wild-type rats, 50 μl cell suspension was routinely plated. This generated cultures in the range of 200.000-470.000 cells per well. Six wells were plated per embryo; three were incubated in N2 only and three with N2+0.1 μM LG268. Cells were incubated for three days and thereafter fixed in 4% paraformaldehyde for 30 minutes and rinsed. For detection of neuronal nuclei, NeuN (diluted 1:300, Chemicon) was used in immunohistochemistry where visualization was with the ABC-kit from Vector. Cells were counted using brightfield microscopy (Eclipse E300M).

hippocampal cultures = assay: Primary hippocampal cultures, count of Nurr1-positive and non-expressing cells; assay type: cell-based, rat
Description: as §1

Nurr1-/- cortical cells = assay: Primary cortical cultures from Nurr1-knock-out (Nurr1-/-) mice, NeuN count; assay type: cell-based, mouse; details: 0.1 μM, three days
Description: as §3

[4] = test system: primary midbrain cultures; assay: BrdU pulse labeling of primary midbrain cultures (proliferation); assay type: cell-based, rat; details: 0.1 μM
Description: as §2
Bromodeoxyuridine (BrdU) was added in relevant experiments 4-6 hours before fixation. After fixation with 4% paraformaldehyde for 45 minutes, cells were rinsed in PBS. BrdU incorporation was detected by incubating cells with 2 M hydrochloric acid prior to digesting with 0.25% pepsin (Sigma). Following PBS rinses, cells were incubated in blocking solution (0.5% bovine serum albumin, 0.5% Tween-20 in PBS), and thereafter incubated with anti-BrdU antibody (Dako A/S; diluted 1:20 in blocking solution) at 4° C. overnight. Antibody-binding was detected with anti-mouse CY3-conjugated IgG (Jackson ImmunoResearch Labs Inc.). Cells were analyzed using inverted epifluorescent microscopy.

Question: Which results are given for CC/C=C\C/C=C\C/C=C\C/C=C\C/C=C\C/C=C\CCC(=O)O [DHA, docosahexanoic acid]?
Answer: number of NeuN-positive cells (entire neuronal-cell population) [1]: do not produce a general increase; number of TH-immunoreactive (IR) cells [2]: increased the number of TH-IR cells in a dose-dependent manner; also recorded: efficiently increased the number of dopamine neurons

Question: What does the source list for C/C(=C\c1ccc(C(=O)O)cc1)c1ccc2c(c1)C(C)(C)CCC2(C)C [TTNPB]?
Answer: effect on the neurotrophic effect of LG268 ([2]; in the presence of LG268): blocks the neurotrophic effect; number of TH-immunoreactive (IR) cells [2]: does not increase the number of TH-IR cells

Question: How did the “activation of RXR reporter (titration)” value [3] turn out when CC1=C(/C=C/C(C)=C\C=C\C(C)=C\C(=O)O)C(C)(C)CCC1 [9cisRA, 9-cis retinoic acid] was run?
Answer: efficient ligand

Question: And the “activation of RAR reporter (titration)” value (RAR)?
Answer: efficient ligand

Question: What about the “number of TH-IR neurons when combined with RAR antagonist RO” value ([2]; increasing concentrations combined with R041-5253 (RO)) of the same compound?
Answer: increase with increasing concentrations

Question: What about the “number of TH-immunoreactive (IR) cells” value [2] of the same compound?
Answer: does not affect the number of TH-IR cells

Question: Which results are given for Cc1cc2c(cc1C1(c3ccc(C(=O)O)cn3)CC1)C(C)(C)CCC2(C)C [LG268]?
Answer: number of NeuN-positive cells (entire neuronal-cell population) [1]: do not produce a general increase; increase in number of Nurr1-positive cells (cortex cultures): 39%; number of Nurr1 non-expressing cells (cortex cultures): did not increase; total number of neurons (NeuN immunoreactivity) (Nurr1+/+ cortical cells): significantly increased; increase in number of Nurr1-positive cells (hippocampal cultures): 36%; number of Nurr1 non-expressing cells (hippocampal cultures): did not increase; total number of neurons (NeuN immunoreactivity) (Nurr1-/- cortical cells): no increase; efficiency compared to GDNF (TH-IR cells) ([2]; FIG. 12C, comparison of SR11237, LG268 and GDNF): more potent than either SR11237 or GDNF; number of TH-immunoreactive (IR) cells [2]: dose-dependent increase; also recorded: efficiently increased the number of dopamine neurons

Question: For CC1(C)CCC(C)(C)c2cc(C3(c4ccc(C(=O)O)cc4)OCCO3)ccc21 [SR11237], which “proliferation (BrdU)” value [4] is on record?
Answer: not due to increased proliferation

Question: And the “number of dopamine secreting cells” value ([2]; 72 hour incubation, compared to TTNPB, all-trans retinoic acid or no RXR ligand)?
Answer: increased dopamine secreting cells

Question: And the “number of TH-immunoreactive (IR) cells” value [2]?
Answer: dose-dependent increase
